Test results from patent EP0003920A1, “Thieno (3,2-c)- and thieno (2,3-c)pyridines, process for their preparation and their therapeutical application” (OMNIUM FINANCIER AQUITAINE POUR L'HYGIENE ET LA SANTE - …, priority 1978, dated 1979).

Key:
[1] = Acute toxicity, intravenous LD50 (method of Miller and Tainter); parameters: species or system souris; settings: mouse, in vivo, read-out: DL50/24 H/kg de poids corporel
Procedure: En ce qui concerne la toxicité aigüe, la DL50/24 H/kg de poids corporel, déterminée chez la souris selon la méthode de Miller et Tainter pour la voie orale est supérieure à 400 mg pour tous les dérivés.
Selon la même méthode, la DL50/24 H/kg de poids corporel déterminée par la vole intraveineuse est, par exemple, de 154 mg pour le dérivé N° 1, de 89 mg pour le dérivé N° 2, de 184mg pour le dérivé N° 10, de 130 mg pour le dérivé N° 11, de 350mg pour le dérivé N° 12, de 65 mg pour le dérivé N° 18, de 90 mg pour le dérivé N° 22, de 96 mg pour le dérivé N° 24 et de 105 mg pour le dérivé N° 31.

rat [2] = experiment: Anticonvulsant action against electroshock; format: in vivo; settings: 100 mg/kg oral, electroshock 30 min after treatment, score 0 to 4, untreated controls 4
Procedure: Cette action a été étudiée vis-à-vis des électrochocs. L'application chez le rat d'une stimulation électrique supérieure au seuil électro-convulsivant provoque des convulsions expérimentales. On compare alors chez les animaux témoins et chez les animaux traités, à la fois la présence et la durée de chacune des phases convulsives et l'intensité de la crise dans son ensemble.
On établit des séries de 10 rats par produit à tester et on administre par la voie orale, à chaque animal, 100 mg/kg de ce produit.
De chaque côté de la base de la queue de chaque […], une électrode Cat mise en place et 30 minutes après le traitement, l'animal placé dans une enceinte de verre reçoit pendant 50 millisecondes un courant sinusoïdal de 50 périodes/secondes de 120 volts.
Le passage du courant déclenche une crise convulsive dont chacune des phases (tonique, clonique, relachement musculaire) est chronométrée. L'intensité de la crise est alors notée de 0 à 4 selon la présence de chacune des phases et leur durée. Les produits de l'invention sont testés comparativement au phénobarbital qui possède une action anti-convulsivante marquée (intensité de la crise = 2), alors que chez les animaux témoins non traités c'est l'intensité maxima de 4 qui est obtenue.

rat [3] = experiment: Localised carrageenan-induced oedema; format: in vivo; settings: 100 mg/kg oral at -1 h, 0 h, +2.5 h
Procedure: Une solution de carragénine (0,1 ml), à 1 %, est injectée dans les fléchisseurs métatarsiens de la patte postérieure droite du rat au temps 0. Les animaux du lot traité reçoivent en outre, par la voie orale, 100 mg par kg du dérivé à tester respectivement 1 heure avant, en même temps que l'injection de l'agent phlogogène, puis 1 heure et 2 heures et demi après. Les mesures qui sont effectuées à l'aide du micromètre de ROGH au temps 0, 1 heure, 2 heures, 3 heures et 5 heures après l'administration de la carragénine permettent de déterminer, en fonction du temps, le pourcentage d'activité anti-inflammatoire, par comparaison avec le lot témoin.

rat [4] = experiment: Generalised ovalbumin oedema; format: in vivo; settings: po, 100 mg/kg per os 1 h before and together with ovalbumin
Procedure: Une injection intrapéritonéale simultanée de 1 ml d'ovalbumine et de 0,5 ml d'une solution aqueuse de bleu Evans à 1% est effectuée sur le rat. D'autre part, on administre per os aux animaux du lot traité 100 mg/kg du dérivé à tester une heure avant et en même temps que l'ovalbumine. L'intensité du phénomène ainsi provoqué est notée par un chiffre allant de 1 à 5 suivant la progression du syndrome inflammatoire. On détermine ainsi la moyenne de l'intensité oedémateuse et le pourcentage de diminution de la réaction oedémateuse par rapport au témoin, en fonction du temps.

souris = experiment: Potentiation of an infra-hypnotic dose of sodium pentobarbital; format: in vivo; settings: mouse, 100 mg/kg oral, 30 min before i.p. infra-hypnotic dose of sodium pentobarbital; control 0
Procedure: Les composés de l'invention potentialisent de façon très nette l'action des hypnotiques. En effet, administrés à différents lots de souris par la voie orale, à la dose de 100 mg/ kg, trente minutes avant l'injection intrapéritonéale d'une dose infra-hypnotique de pentobarbital sodique, ils produisent par rapport aux animaux témoins non traités, une nette poten- tialisation de l'action du barbiturique.
En effet, le nombre de souris endormies, le temps moyen d'endormissement et la durée du sommeil sont nettement accrus dans les lots traités. Les résultats des composés les plus actifs sont rassemblés dans le Tableau I suivant.

[5] = 1 h after carrageenan, read-out: Pourcentage d'activité anti-inflammatoire 1ère heure
[6] = 2 h after carrageenan, read-out: Pourcentage d'activité anti-inflammatoire 2ème heure
[7] = 3 h after carrageenan, read-out: Pourcentage d'activité anti-inflammatoire 3ème heure
[8] = 5 h after carrageenan, read-out: Pourcentage d'activité anti-inflammatoire 5ème heure
[9] = 2 h after ovalbumin injection, read-out: Pourcentage d'activité anti-inflammatoire 2ème heure
[10] = 3 h after ovalbumin injection, read-out: Pourcentage d'activité anti-inflammatoire 3ème heure

Compound	LD50 at 24 h [1] [mg/kg]	valeurs moyennes de l'intensité des crises (rat [2])	inhibition in vivo at 100 mg/kg (rat [3]; [5]) [%]	inhibition in vivo at 100 mg/kg (rat [3]; [6]) [%]	inhibition in vivo at 100 mg/kg (rat [3]; [7]) [%]	inhibition in vivo at 100 mg/kg (rat [3]; [8]) [%]	inhibition in vivo at 100 mg/kg (rat [4]; [9]) [%]	inhibition in vivo at 100 mg/kg (rat [4]; [10]) [%]	Pourcentage d'animaux endormis (souris) [%]
CN(C)CCNC(=O)c1cc2sccc2cn1 [Dérivé 2, β -diméthylaminoéthylaminocarbonyl-6 thiéno [3,2-c] pyridine]	89	–	–	–	–	–	–	–	–
CCNC(=O)c1cc2sccc2cn1 [Dérivé 4, Ethylaminocarbonyl-6 thiéno [3,2-c] pyridine]	–	3	41	46	50	58	47	56	–
CC(C)NC(=O)c1cc2ccsc2cn1 [Dérivé 5, Isopropylaminocarbonyl-5 thiéno [2,3-c] pyridine]	–	2,5	43	49	54	56	52	60	80
CCCCNC(=O)c1cc2sccc2cn1 [Dérivé 6, n-butylaminocarbonyl-6 thiéno [3,2-c] pyridine]	–	–	–	–	–	–	–	–	80
CCN(CC)C(=O)c1cc2sccc2cn1 [Dérivé 9, Diéthylaminocarbonyl-6 thiéno[3,2-c] pyridine]	–	2,5	–	–	–	–	–	–	–
O=C(c1cc2sccc2cn1)N1CCCC1 [Dérivé 10, (pyrrolidinyl-1)carbonyl-6 thiéno[3,2-c] pyridine]	184	–	37	42	46	51	47	55	90
O=C(c1cc2sccc2cn1)N1CCCCC1 [Dérivé 11, Pipéridinocaxbonyl-6 thiéno [3,2-c] pyridine]	130	–	–	–	–	–	–	–	–
O=C(c1cc2sccc2cn1)N1CCOCC1 [Dérivé 12, Morpholinocarbonyl-6 thiéno [3,2-c] pyridine]	350	–	–	–	–	–	–	–	–
O=C(NCc1ccccc1)c1cc2ccsc2cn1 [Dérivé 13, Benzylaminocarbonyl-5 thiéno [2,3-c] pyridine]	–	3	34	40	45	51	50	56	–
O=C(NCCc1ccccc1)c1cc2sccc2cn1 [Dérivé 15, Phénéthylaminocarbonyl-6 thiéno[3,2-c] pyridine]	–	–	38	45	49	53	53	60	90
C=CCNC(=O)c1cc2sccc2cn1 [Dérivé 16, Allylaminocarbonyl-6 thiéno [3,2-c] pyridine]	–	–	–	–	–	–	–	–	70
O=C(NCCN1CCOCC1)c1cc2sccc2cn1 [Dérivé 19, β -morpholinoéthylaminocarbonyl-6 thiéno[3,2-c] pyridine]	–	2,5	–	–	–	–	–	–	–
O=C(NCc1ccncc1)c1cc2ccsc2cn1 [Dérivé 21, (pyridyl-4-méthyl)aminocarbonyl-5-thiéno[2,3-c] pyridine]	–	–	40	48	51	54	45	52	–
O=C(NCc1cccnc1)c1cc2ccsc2cn1 [Dérivé 23, (pyridyl-3 méthyl)aminocarbonyl-5 thiéno [2,3-c]pyridine]	–	–	–	–	–	–	–	–	80
O=C(NCc1cccnc1)c1cc2sccc2cn1 [Dérivé 24, (pyridyl-3 méthyl)aminocarbonyl-6 thiéno[3,2-c] pyridine]	96	–	–	–	–	–	–	–	–
O=C(Nc1cccc(C(F)(F)F)c1)c1cc2sccc2cn1 [Dérivé 25, (trifluorométhyl-3 phényl)aminocarbonyl-6 thiéno[3,2-c] pyridine]	–	2,5	39	46	49	52	51	59	90
Cc1ccc(N2CCN(C(=O)c3cc4sccc4cn3)CC2)cc1 [Dérivé 26, (p-tolyl-4 pipérazinyl-1)carbonyl-6 thiéno[3,2-c]bvridine]	–	–	–	–	–	–	–	–	90
O=C(c1cc2sccc2cn1)N1CCN(c2ccccc2Cl)CC1 [Dérivé 27, (o-chlorophényl-4 pipérazinyl-1) carbonyl-6 thiéno[3,2-c] pyridine]	–	–	41	49	52	54	47	56	–
O=C(c1cc2sccc2cn1)N1CCN(c2cccc(Cl)c2)CC1 [Dérivé 28, (m-chlorophényl-4 pipérazinyl-1)carbonyl-6 thiéno[3,2-c] pyridine]	–	–	–	–	–	–	–	–	80
COc1ccc(N2CCN(C(=O)c3cc4sccc4cn3)CC2)cc1 [Dérivé 29, (p-méthoxyphényl-4 pipérazinyl-1) carbonyl-6 tniéno[3,2-c] pyridine]	–	–	–	–	–	–	–	–	90
COc1ccccc1N1CCN(C(=O)c2cc3ccsc3cn2)CC1 [Dérivé 30, (o-méthoxyphényl-4 pipérazinyl-1) carbonyl-5 thiéno[2,3-c] pyridine]	–	2,5	38	45	49	53	48	56	–
NC(=O)c1cc2ccsc2cn1 [Dérivé 32, Carbamoyl-5 thiéno [2,3-c] pyridine]	–	–	34	41	45	47	52	60	–
CCC1(c2ccccc2)C(=O)NC(=O)NC1=O [phénobarbital, reference compound]	–	2	–	–	–	–	–	–	–
